Counter-ions that a name gives are not always drawn. Active and inactive are the calls of the source.
What was measured:
[1] = target: T1, Rac GTPase-activating protein 1 (Homo sapiens, UniProt Q9H0H5); assay: blockers of MgcRacGAP-driven Rac1 GTP hydrolysis – biochemical, ADP Hunter fluorescence, primary and confirmatory, confirmation (AID 624330); type: functional
T1 sequence (Q9H0H5 whole entry): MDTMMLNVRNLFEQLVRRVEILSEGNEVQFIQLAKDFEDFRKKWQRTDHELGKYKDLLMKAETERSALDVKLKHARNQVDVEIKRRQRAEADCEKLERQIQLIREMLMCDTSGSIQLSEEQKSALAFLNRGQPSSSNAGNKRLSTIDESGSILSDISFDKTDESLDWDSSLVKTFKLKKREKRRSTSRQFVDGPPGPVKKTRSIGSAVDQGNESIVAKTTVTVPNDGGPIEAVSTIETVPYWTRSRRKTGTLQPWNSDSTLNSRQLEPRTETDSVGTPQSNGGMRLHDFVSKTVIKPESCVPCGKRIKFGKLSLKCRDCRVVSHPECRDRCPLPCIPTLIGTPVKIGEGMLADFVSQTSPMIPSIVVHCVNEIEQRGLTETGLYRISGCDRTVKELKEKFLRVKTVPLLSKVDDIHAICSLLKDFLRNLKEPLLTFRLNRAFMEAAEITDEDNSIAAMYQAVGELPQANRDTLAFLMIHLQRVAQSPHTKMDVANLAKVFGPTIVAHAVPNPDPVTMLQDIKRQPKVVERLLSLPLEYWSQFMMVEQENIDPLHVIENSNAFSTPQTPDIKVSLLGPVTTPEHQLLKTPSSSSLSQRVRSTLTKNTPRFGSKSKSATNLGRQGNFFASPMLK

[2] = target: T2, DNA repair protein RAD52 homolog (Homo sapiens, UniProt P43351); type: functional, biochemical
T2 sequence (P43351 whole entry): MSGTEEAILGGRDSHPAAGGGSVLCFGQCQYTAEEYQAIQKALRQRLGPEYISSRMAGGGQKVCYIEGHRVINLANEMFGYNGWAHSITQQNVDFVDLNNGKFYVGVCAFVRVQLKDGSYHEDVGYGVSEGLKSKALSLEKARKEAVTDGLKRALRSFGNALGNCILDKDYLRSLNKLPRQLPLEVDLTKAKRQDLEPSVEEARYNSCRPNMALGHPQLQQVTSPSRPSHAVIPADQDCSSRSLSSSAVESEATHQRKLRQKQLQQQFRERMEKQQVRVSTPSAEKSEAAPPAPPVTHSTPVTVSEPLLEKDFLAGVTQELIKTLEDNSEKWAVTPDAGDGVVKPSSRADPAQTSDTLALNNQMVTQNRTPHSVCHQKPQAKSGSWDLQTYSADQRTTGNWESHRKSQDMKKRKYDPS

[3] = OVCAR8 cell viability loss – plate reader, dry powder samples, PAX8 project, dose response (AID 743197); type: functional, cell-based; conditions: OVCAR-8
[4] = OVCAR-3 cell viability loss – plate reader, dry powder samples, PAX8 inhibitor project, dose response (AID 743044); type: functional, cell-based
[5] = target: Paired box protein Pax-8 (Homo sapiens, UniProt Q06710); assay: PAX8 transcriptional activity inhibition in RMG-I – RMG-I cells, luciferase, cherry-pick, dose response (AID 687027); type: functional, cell-based;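 also: luciferase reporter driven by Pax8 target thyroperoxidase promoter measured by SteadyGlo luminescence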
Sequence of Paired box protein Pax-8 (Q06710 whole entry): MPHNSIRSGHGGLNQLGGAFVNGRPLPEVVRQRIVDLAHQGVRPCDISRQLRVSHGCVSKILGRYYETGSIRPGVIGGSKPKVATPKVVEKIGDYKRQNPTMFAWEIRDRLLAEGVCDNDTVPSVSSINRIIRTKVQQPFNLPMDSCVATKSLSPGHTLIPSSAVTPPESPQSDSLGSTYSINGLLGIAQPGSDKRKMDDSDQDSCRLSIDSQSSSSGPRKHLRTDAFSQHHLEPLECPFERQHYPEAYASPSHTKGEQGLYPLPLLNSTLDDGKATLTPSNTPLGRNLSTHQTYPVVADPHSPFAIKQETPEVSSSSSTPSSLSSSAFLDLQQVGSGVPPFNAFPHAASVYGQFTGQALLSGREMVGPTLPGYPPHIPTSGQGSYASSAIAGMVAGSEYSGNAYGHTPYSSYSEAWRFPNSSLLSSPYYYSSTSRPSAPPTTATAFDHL

[6] = target: T3, Corticotropin-releasing factor receptor 2/Corticotropin-releasing factor-binding protein (Homo sapiens, UniProt P24387+Q13324); assay: activators of CRF receptor 2 with binding protein – uHTS hits, confirmation (AID 602473); type: functional; conditions: read-out: EC50_Mean
T3 sequence (Q13324 whole entry): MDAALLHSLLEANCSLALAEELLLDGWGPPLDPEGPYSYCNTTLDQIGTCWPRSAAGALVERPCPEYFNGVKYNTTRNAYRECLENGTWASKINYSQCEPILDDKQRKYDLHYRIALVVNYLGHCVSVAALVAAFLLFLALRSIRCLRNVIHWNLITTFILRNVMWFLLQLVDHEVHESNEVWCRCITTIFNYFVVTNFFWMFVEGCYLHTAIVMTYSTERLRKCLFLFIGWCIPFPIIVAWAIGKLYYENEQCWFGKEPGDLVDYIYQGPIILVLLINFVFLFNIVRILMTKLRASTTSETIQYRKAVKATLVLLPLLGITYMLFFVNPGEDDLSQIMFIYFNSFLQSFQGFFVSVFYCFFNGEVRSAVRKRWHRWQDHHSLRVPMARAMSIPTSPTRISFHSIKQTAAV
T3 sequence (P24387 whole entry): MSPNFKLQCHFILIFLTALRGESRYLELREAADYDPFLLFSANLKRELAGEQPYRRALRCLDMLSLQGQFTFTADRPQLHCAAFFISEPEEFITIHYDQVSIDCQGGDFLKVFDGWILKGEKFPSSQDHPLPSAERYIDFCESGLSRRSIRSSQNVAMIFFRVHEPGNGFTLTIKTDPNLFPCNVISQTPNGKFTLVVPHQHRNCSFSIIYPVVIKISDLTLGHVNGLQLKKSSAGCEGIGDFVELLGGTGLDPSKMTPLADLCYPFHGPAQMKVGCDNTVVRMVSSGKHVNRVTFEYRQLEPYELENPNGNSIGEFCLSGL

[7] = test system: Vero; assay: cells; type: functional; conditions: Chlorocebus sabaeus
[8] = target: T3, Corticotropin-releasing factor receptor 2/Corticotropin-releasing factor-binding protein; assay: Dose Response confirmation of uHTS hits for small molecule antagonists of the CRF-binding protein and CRF-R2 receptor complex.; type: functional; conditions: read-out: IC50_Mean
[9] = HIV-1 AD8 envelope cell-cell fusion blockers – cherry-pick, dose response (AID 652062); type: functional, cell-based;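 also: luciferase signal from cell-cell fusion driven by HIV-1 clade B AD8 Env; potency is for inhibitors of fusion seen as a drop in luminescence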
[10] = blockers of HIV-1 envelope-mediated cell-cell fusion – cherry-pick, dose response (AID 652057); type: functional, cell-based
[11] = target: T4, Streptokinase A (Streptococcus pyogenes serotype M1, UniProt P10520); assay: viability-normalized secreted streptokinase activity reduction – plasminogen activation absorbance, OD405, dose response (AID 1914); type: functional, Streptococcus pyogenes M1 GAS;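 also: secreted streptokinase activity via plasminogen activation per viability signal from cell pellet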
T4 sequence (P10520 whole entry): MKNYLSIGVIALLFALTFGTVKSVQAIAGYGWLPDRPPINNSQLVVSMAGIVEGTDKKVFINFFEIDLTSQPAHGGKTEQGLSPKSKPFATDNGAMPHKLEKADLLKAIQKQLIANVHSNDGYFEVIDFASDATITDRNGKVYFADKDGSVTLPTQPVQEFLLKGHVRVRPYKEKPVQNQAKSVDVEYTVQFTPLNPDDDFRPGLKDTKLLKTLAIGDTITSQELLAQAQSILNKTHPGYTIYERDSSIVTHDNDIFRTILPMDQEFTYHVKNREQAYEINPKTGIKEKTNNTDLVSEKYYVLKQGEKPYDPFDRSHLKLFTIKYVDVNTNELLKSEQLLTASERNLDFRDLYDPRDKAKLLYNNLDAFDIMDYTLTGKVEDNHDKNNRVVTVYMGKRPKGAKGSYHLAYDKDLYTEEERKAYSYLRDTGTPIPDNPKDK

[12] = test system: Streptococcus; assay: GAS UMAA2166 growth inhibition – luminescence, BacTiterGlo, counter-screen for streptokinase expression inhibitor project, dose response (AID 1915); type: functional, organism-based;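 also: potency for reduction of bacterial viability or growth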
[13] = cells; type: functional
[14] = test system: Streptococcus sp. 'group A'; assay: Streptococcus pyogenes SK(-)GAS viability under kanamycin – luminescence, BacTiterGlo, confirmation, counter-screen for streptokinase expression inhibitor project, dose response (AID 1900); type: functional, organism-based
[15] = target: T5, Protein skinhead-1 (Caenorhabditis elegans, UniProt P34707); type: functional
T5 sequence (P34707 whole entry): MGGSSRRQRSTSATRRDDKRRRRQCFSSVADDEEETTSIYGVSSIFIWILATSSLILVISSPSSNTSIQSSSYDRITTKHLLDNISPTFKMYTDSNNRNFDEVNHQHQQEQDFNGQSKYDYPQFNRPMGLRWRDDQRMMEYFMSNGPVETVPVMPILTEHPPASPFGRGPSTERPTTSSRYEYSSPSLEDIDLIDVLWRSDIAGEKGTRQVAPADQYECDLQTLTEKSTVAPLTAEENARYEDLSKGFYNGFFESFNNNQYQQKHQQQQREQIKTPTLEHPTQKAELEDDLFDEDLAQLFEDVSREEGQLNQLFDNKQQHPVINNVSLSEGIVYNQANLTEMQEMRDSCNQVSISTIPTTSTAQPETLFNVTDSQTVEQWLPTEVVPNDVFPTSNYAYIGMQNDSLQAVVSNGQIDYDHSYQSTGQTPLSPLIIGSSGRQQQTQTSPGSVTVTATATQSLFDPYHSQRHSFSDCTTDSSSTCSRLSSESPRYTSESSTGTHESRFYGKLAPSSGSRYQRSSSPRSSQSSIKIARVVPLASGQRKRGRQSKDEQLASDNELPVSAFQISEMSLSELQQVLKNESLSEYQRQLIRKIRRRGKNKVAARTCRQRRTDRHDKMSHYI

[16] = fluconazole-exposed Candida albicans growth modulators – fluorescence, retest, confirmation (AID 2467); type: functional, cell-based
[17] = NIH-3T3 fibroblast cytotoxicity, dose response, cytotoxicity control, cell-based, fluorescence, Alamar Blue, secondary assay (AID 2327); type: functional;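 also: NIH-3T3 mouse fibroblasts cultured with fluconazole at 8 µg/mL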

With `CC[N+](CC)(CC)CCCCOc1ccc2c(c1)C(=O)c1cc(OCCCC[N+](CC)(CC)CC)ccc1-2` the IC50 [1] was 221 µM (active) and the AC50 [2] was 0.506 µM (active).

For `Cc1ccc(OC(=O)N(C)C[C@@H]2OCc3ccccc3-c3c(n(C)c4ccccc34)C(=O)N([C@@H](C)CO)C[C@H]2C)cc1`, the AC50 [3] was > 70 µM (inactive), the AC50 [4] was 39.9 µM (active) and the AC50 [5] was 4.78 µM (active).

For `Cc1ccc(/C=N/NC(=S)Nc2cccc(S(=O)(=O)N(C)C)c2)o1`, the EC50 [6] was > 53 µM (inactive), the CC50 [7] was > 25 µM (active) and the IC50 [8] was > 47.1 µM (inactive).

For `Cc1cc(N2CCN(C)CC2)nc2ccc(NC(=S)N3CCCCC3)cc12`, the AC50 [2] was 10.9 µM (active).

In the case of `CC(C)CC#Cc1ccc2c(c1)O[C@@H](CN(C)S(=O)(=O)c1ccc(F)cc1)[C@H](C)CN([C@@H](C)CO)S2(=O)=O`, the AC50 [9] is reported as 44.9 µM (active), the AC50 [3] is reported as 61 µM (active) and the AC50 [10] is reported as 30.8 µM (active). For the same molecule, the AC50 [5] was 9.45 µM (active).

For `CN/C(=C\[N+](=O)[O-])NCCSCc1ccc(CN(C)C)o1` [RANITIDINE HYDROCHLORIDE], the AC50 [2] was 11.8 µM (active).

With `O=C(Nc1nnc(-c2ccc(Br)cc2)o1)c1ccco1` the EC50 [11] was > 150 µM (not active), the EC50 [12] was 13.7 µM (active) and the IC50 [13] was 3.95 µM (active). The EC50 [14] was 3.78 µM (active).

For `Cn1ccs/c1=N\C(=O)c1ccc(OC(F)(F)F)cc1`, the IC50 [15] was 29.8 µM (active).

For `Fc1ccc(-c2cnc(-c3cccs3)o2)cc1`, the IC50 [15] was 24 µM (active).

In the case of `COC(=O)CN1C(=S)N(c2ccc(OC)cc2)C(=O)/C1=C/c1ccc(N2CCOCC2)cc1`, the IC50 [15] is reported as > 100 µM (inactive).

In the case of `CN1CCN(C2Cc3ccc(Cl)cc3Sc3ccc(F)cc32)CC1` (centres undefined), the EC50 [11] is reported as > 150 µM (not active), the EC50 [12] is reported as 11.9 µM (active) and the AC50 [2] is reported as 14.1 µM (active). The EC50 [14] was 4.95 µM (active).

For `Cc1ccsc1C(=O)OCC(=O)Nc1nnc(-c2ccccc2)o1`, the EC50 [16] was 3.98 µM (active), the IC50 [13] was 15.1 µM (active) and the EC50 [17] was > 160 µM (inactive).

With `Fc1cc(Cl)cc2ccc(-c3ccccc3)nc12` the IC50 [15] was 45.2 µM (active).

Source: ChEMBL document CHEMBL1201862, “PubChem BioAssay data set” (2004)
